The source of these data is patent US10011573B2, “Human androgen receptor DNA-binding domain (DBD) compounds as therapeutics and methods for their use” (The University of British Columbia, priority 2014, dated 2018).

Where two headings read alike, the source gives them in different places.

In one experiment the test system is PSA. The experiment in a line: Prostate-specific antigen (PSA) assay, secreted PSA from the eGFP assay plates. It counts as cell-based, human. The method, then: 3. Prostate-specific antigen (PSA) assay: The evaluation of PSA levels secreted into the media was performed in parallel to the eGFP assay using the same plates. After cells were incubated for 3 days, 150 μl of the media was taken from each well, and added to 150 μl of PBS.

The next experiment has as its target T1, androgen receptor (AR) (Homo sapiens, UniProt P10275, T878A).
T1 sequence (P10275 1-920 T878A): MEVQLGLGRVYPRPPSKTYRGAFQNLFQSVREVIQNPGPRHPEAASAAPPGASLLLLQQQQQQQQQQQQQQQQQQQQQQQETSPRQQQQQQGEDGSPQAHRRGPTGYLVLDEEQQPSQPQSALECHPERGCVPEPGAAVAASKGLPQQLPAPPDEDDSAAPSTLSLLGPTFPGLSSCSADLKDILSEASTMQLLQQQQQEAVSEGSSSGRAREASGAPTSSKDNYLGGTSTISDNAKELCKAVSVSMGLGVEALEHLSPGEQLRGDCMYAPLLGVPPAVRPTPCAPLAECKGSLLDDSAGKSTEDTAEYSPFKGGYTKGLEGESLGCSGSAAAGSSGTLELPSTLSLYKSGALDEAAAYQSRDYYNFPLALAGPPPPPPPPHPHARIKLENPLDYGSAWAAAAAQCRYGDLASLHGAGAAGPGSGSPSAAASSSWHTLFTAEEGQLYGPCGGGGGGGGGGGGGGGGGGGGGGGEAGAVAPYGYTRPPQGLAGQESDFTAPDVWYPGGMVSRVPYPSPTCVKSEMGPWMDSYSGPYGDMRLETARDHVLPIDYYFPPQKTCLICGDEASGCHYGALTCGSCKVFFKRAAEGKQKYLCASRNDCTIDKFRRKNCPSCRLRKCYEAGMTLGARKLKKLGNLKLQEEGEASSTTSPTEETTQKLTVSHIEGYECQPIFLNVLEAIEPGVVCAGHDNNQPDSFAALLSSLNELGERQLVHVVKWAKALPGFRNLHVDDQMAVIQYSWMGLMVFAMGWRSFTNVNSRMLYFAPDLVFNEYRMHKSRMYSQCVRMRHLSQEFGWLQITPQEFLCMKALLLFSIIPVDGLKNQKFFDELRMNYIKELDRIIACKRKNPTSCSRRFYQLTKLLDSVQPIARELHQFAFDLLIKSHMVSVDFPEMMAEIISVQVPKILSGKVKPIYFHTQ
The experiment in a line: eGFP cellular AR transcription assay (LNCaP eGFP cells, LN-ARR2PB-eGFP). As to conditions: for inhibition at 3 µM: LNCaP, read-out: % Inhibition (3 μM).

Setting [1] is: eGFP IC50 (μM), LNCaP eGFP cells.

One may read the IC50 as the concentration at which inhibition is half-maximal. A word on the inhibition: it is the change of the read-out against control, counted positive when it falls.

On to `Oc1cccc2ccc(N3CCOCC3)nc12` [Compound 14400], for which the IC50 was found to be 380 nM with PSA (Homo sapiens, secreted PSA) and 0.46 µM at androgen receptor (AR) (setting [1]). In addition, at androgen receptor (AR), the inhibition at 3 µM was found to be 79%.
The like results for `CNc1nc(-c2ccc3ccccc3c2)cs1` [Compound 14203] were, in that order, 3910 nM, 3.17 µM and 91.5%.
For `Nc1ccccc1-c1nc(-c2cccnc2)cs1` [Compound 14463], the IC50 in the experiment on PSA (Homo sapiens, Series 1) turned out to be 2120 nM; against androgen receptor (AR) (eGFP IC50 (μM), Series 1), 2.3 µM.
For `c1ccc(-c2csc(N3CCCCC3)n2)cc1` [Compound 14233], in that order: 690 nM and 1.02 µM.
On to `CCOC(=O)c1c(C)[nH]c(C(=O)N[C@@H]2CCCc3ccccc32)c1C` [Compound 14002], for which the IC50 in the experiment with PSA (Homo sapiens, secreted PSA) stood at 3540 nM; against androgen receptor (AR) (setting [1]), 11.8 µM.
For the molecule `N#Cc1cc(N2CCOCC2)nc2ccccc12` [Compound 14395], the IC50 in the experiment on PSA (Homo sapiens, secreted PSA) came out at 540 nM; at androgen receptor (AR) (setting [1]) it was 0.54 µM. Besides, at androgen receptor (AR), the inhibition at 3 µM was determined as 103%.
Take `Oc1cc(F)ccc1-c1csc(N2CCOCC2)n1` [Compound 14364]: the IC50 in the experiment with PSA (Series 1) is 810 nM; at androgen receptor (AR) (read-out: eGFP IC50) it was 1.22 µM. Further, the “% Inhibition (3 μM)” value on androgen receptor (AR) was found to be 91.26%.
Turning to `Clc1c(Br)ncn1-c1csc(N2CCOCC2)n1` [Compound 14450, 4-(4-(4-bromo-5-chloro-1H-imidazol-1-yl)thiazol-2-yl)morpholine], the IC50 with PSA (Homo sapiens, Series 1) amounted to 1280 nM; at androgen receptor (AR) (eGFP IC50 (μM), Series 1), 1.3 µM.
Regarding `c1ccc(-c2ccc(N3CCOCC3)s2)cc1` [Compound 14103], the IC50 amounted to 511 nM in the experiment on PSA (Homo sapiens, Series 1) and 0.522 µM against androgen receptor (AR) (eGFP IC50 (μM), Series 1). Moreover, at androgen receptor (AR), the inhibition at 3 µM was 100%.
As to `c1ccc(-c2ccc3ccccc3n2)cc1` [Compound 14390], the IC50 amounted to 1230 nM with PSA (Homo sapiens, secreted PSA) and 2.6 µM against androgen receptor (AR) (setting [1]). In addition, the inhibition at 3 µM on androgen receptor (AR) was 80.2%.
On to `Clc1ccc(-c2csc(N3CCOCC3)n2)cc1Cl` [Compound 14266], for which the IC50 was 2960 nM with PSA (Series 1) and 3.31 µM on androgen receptor (AR) (read-out: eGFP IC50). Besides, on androgen receptor (AR), the “% Inhibition (3 μM)” value came to 82.19%.
With `Cc1scc(-c2csc(N3CCOCC3)n2)c1C` [Compound 14408, 4-(4-(4,5-dimethylthiophen-3-yl)thiazol-2-yl)morpholine], the IC50 in the experiment on PSA (Homo sapiens, Series 1) amounted to 430 nM; at androgen receptor (AR) (eGFP IC50 (μM), Series 1), 0.42 µM.
As for `FC(F)(F)C1CN(c2nc(-c3ccccc3)cs2)CCO1` (stereo not shown) [Compound 14250], the IC50 with PSA (Series 1) is 160 nM; at androgen receptor (AR) (read-out: eGFP IC50), 1.64 µM.
On to `Oc1ccc2nc(N3CCOCC3)sc2c1` [Compound 14378], for which the IC50 was 8080 nM in the experiment on PSA (Homo sapiens, secreted PSA) and 7.41 µM at androgen receptor (AR) (setting [1]). Also, the inhibition at 3 µM at androgen receptor (AR) amounted to 57.5%.
For the molecule `O=C(O)c1sc(N2CCOCC2)nc1-c1ccccc1` [Compound 14506], the IC50 was 4500 nM in the experiment on PSA (Series 1) and 7 µM on androgen receptor (AR) (read-out: eGFP IC50).
In the case of `Ic1ncn(-c2csc(N3CCOCC3)n2)c1I` [Compound 14464, 4-(4-(4,5-diiodo-1H-imidazol-1-yl)thiazol-2-yl)morpholine], the IC50 with PSA (Homo sapiens, Series 1) was determined as 1810 nM; on androgen receptor (AR) (eGFP IC50 (μM), Series 1), 1.5 µM.
Regarding `c1ccc2c(-c3nc(-c4ccncc4)cs3)c[nH]c2c1` [Compound 14150], the IC50 is 1290 nM in the experiment with PSA (Homo sapiens, Series 1) and 1.44 µM on androgen receptor (AR) (eGFP IC50 (μM), Series 1). The inhibition at 3 µM at androgen receptor (AR) came to 133%.
The like results for `c1csc(-c2nc(-c3c[nH]c4ccccc34)cs2)c1` [Compound 14481] were, in that order, 1410 nM, 2.18 µM and 80.5%.
With `c1ccc(-c2csc(-c3ccccn3)n2)cc1` [Compound 14130], the IC50 in the experiment with PSA (Series 1) turned out to be 8540 nM; at androgen receptor (AR) (read-out: eGFP IC50) it was 7.4 µM.
Consider `Fc1ccc(-c2csc(N3CCOCC3)n2)cc1F` [Compound 14264], for which the IC50 in the experiment with PSA (Homo sapiens, Series 1) is 110 nM; at androgen receptor (AR) (eGFP IC50 (μM), Series 1) it was 0.24 µM. In addition, the inhibition at 3 µM on androgen receptor (AR) is 115%.
For the molecule `Brc1cn(-c2csc(N3CCOCC3)n2)cn1` [Compound 14447, 4-(4-(4-bromo-1H-imidazol-1-yl)thiazol-2-yl)morpholine], the IC50 in the experiment on PSA (Homo sapiens, Series 1) is 1740 nM; against androgen receptor (AR) (eGFP IC50 (μM), Series 1), 2.1 µM.
For the molecule `Oc1cccc(N2Cc3ccccc3C2)c1` [Compound 14309], the IC50 in the experiment with PSA (Homo sapiens, secreted PSA) stood at 500 nM; against androgen receptor (AR) (setting [1]), 0.75 µM.
